Reference: article PMC6934184, “Selective DNA-PKcs inhibition extends the therapeutic index of localized radiotherapy and chemotherapy” (The Journal of Clinical Investigation, 2019)

Target: T1, FGR (Homo sapiens, UniProt P09769)
T1 construct: purchased Thermo Fisher Scientific (Life Technologies) SelectScreen
Assay: SelectScreen Z'LYTE
Assay type: biochemical
Procedure, shortened: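 Percent values come from Thermo SelectScreen profiling of NU5455, combining activity and binding assays. CSF1R was run in Z'LYTE format at Km app ATP, and CAMK1 in Adapta format with ATP listed at 10.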

T1 sequence (P09769 whole entry): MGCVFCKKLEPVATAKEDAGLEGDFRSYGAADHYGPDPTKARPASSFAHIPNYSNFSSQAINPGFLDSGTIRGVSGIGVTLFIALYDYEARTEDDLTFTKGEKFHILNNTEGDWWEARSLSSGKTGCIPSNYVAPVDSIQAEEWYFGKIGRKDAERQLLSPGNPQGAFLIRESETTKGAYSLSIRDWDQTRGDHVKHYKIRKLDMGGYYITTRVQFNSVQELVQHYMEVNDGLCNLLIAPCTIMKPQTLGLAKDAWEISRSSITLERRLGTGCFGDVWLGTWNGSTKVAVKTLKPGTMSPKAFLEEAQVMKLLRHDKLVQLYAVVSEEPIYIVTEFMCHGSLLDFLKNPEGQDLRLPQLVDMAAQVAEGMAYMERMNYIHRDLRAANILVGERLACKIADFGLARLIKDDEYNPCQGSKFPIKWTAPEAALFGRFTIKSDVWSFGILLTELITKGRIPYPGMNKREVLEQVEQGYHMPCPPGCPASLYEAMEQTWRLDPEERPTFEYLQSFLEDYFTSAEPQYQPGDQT

## CN(C(=O)CN1CCOCC1)c1ccc2sc3c(-c4cccc5c(=O)cc(N6CC7CCC(C6)O7)oc45)cccc3c2c1 [NU5455]
  inhibition at 1 µM: 12.1%
